Molecules are shown by their SMILES. Where “and” joins values, the source holds several entries; their conditions need not be identical. Identical values can stand only once.

Data set [1] in a line: Determination of pKa value of monomer having hydrophilic group by NaOH titration.
Method: (§1) In a water/acetone mixture (10/15 ml) solution was poured 0.7865 g of CH2═CHCH2C(CF3)2OH, followed by stirring at room temperature. After it was confirmed that the solution was homogeneous, titration was carried out with about 0.2 mol/L NaOH solution. A titration curve was obtained by adding the NaOH solution dropwise in increments of 0.15 ml and recording a pH value at every addition. An equivalence point was determined by an inflection point (maximum differential value of titration curve=dpH/dml) of the titration curve.
A short description of data set [2]: physchem.
Method: as §1
Setting [3] is: water/acetone mixture, pKa, monomer having hydrophilic group used in the Preparation Example, corrected.
Where [4] appears, read: monomer having hydrophilic group used in the Preparation Example, NaOH titration in water/acetone, corrected.

The pKa is the negative logarithm of the acid dissociation constant. As for `C=CCC(O)(C(F)(F)F)C(F)(F)F` [CH2═CHCH2C(CF3)2OH, 1,1-bistrifluoromethyl-3-buten-1-ol], the “pKa value (single titration)” value in data set [1] (NaOH titration in water/acetone, pH at half equivalence point minus blank difference) was 9.64 and 9.54. Also, the pKa in data set [1] (water/acetone mixture, pKa value (decided from experiments carried out three times), NaOH titration in water/acetone) stood at 9.6; in data set [1] (water/acetone mixture, pKa value (single titration), NaOH titration in water/acetone, pH at half equivalence point minus blank difference), 9.69; in data set [1] (setting [3]), 9.6.
For the compound `O=C(O)/C=C\C(=O)O` [Maleic acid], the pKa in data set [1] (setting [3]) was 1.4.
`C=C(F)C(F)(F)OC(F)(C(F)(F)F)C(F)(F)OC(F)(C(F)(F)F)C(F)(F)OC(F)(C(=O)O)C(F)(F)F` (centres unmarked) [perfluoro-(12,12-dihydro-2,5,8-tristrifluoromethyl-3,6,9-trioxa-11-dodecenic acid)] displayed a pKa in data set [1] (setting [4]) of 3.8.
For `C=C(F)C(F)(F)OC(F)(C(F)(F)F)C(F)(F)OC(F)(C(=O)O)C(F)(F)F` (centres unmarked) [perfluoro-(9,9-dihydro-2,5-bistrifluoromethyl-3,6-dioxa-8-nonenoic acid)], the pKa in data set [1] (setting [4]) amounted to 3.6.
Consider `C=C(C(=O)O)C(F)(F)F` [2-(trifluoromethyl)acrylic acid], for which the pKa in data set [1] (setting [3]) was 3.9.
In data set [1] (setting [4]), `C=C(F)C(F)(F)OC(F)(C(F)(F)F)C(F)(F)OC(F)(C(F)(F)F)C(F)(F)OC(F)(C(F)(F)F)C(F)(F)OC(F)(C(=O)O)C(F)(F)F` (centres unmarked) [perfluoro-(15,15-dihydro-2,5,8,11-tetrakistrifluoromethyl-3,6,9,12-tetraoxa-14-pentadecenic acid)] returned a pKa of 4.0.
Compound `C=C(F)C(F)(F)OC(F)(C(F)(F)F)C(F)(F)OC(F)(CO)C(F)(F)F` (centres unmarked) [(1,1,9,9-tetrahydro-2,5-bistrifluoromethyl-3,6-dioxa-8-nonenol)] gave a pKa in data set [1] (setting [4]) of 12.6.
Take `C=C(F)C(F)(F)OC(F)(C(=O)O)C(F)(F)F` (centres unmarked) [perfluoro-(6,6-dihydro-2-trifluoromethyl-3-oxa-5-hexenoic acid)]: the pKa in data set [2] was 3.4.

These data come from US20070196763A1, “Method of forming laminated resist” (DAIKIN INDUSTRIES, LTD., priority 2003, published 2007).
